Test results taken from patent US20230002367A1, “BIFUNCTIONAL COMPOUNDS” (Hoffmann-La Roche Inc., priority 2019, published 2023).

Target: T1, SMARCA2 (Homo sapiens, UniProt P51531)
T1 construct: endogenous in cells
Assay: SMARCA2 HiBiT degradation assay (cellular)
Type: cell-based
Conditions: for Emax: A549, Emax = amount of residual protein remaining in the cell following compound treatment; for DC50: SMARCA2 HiBiT cells, luminescence readout, 11-point titration from 10 μM, 6 hours or 16 hours, read-out: HiBit A549 SMARCA2 IP

T1 sequence (P51531 whole entry): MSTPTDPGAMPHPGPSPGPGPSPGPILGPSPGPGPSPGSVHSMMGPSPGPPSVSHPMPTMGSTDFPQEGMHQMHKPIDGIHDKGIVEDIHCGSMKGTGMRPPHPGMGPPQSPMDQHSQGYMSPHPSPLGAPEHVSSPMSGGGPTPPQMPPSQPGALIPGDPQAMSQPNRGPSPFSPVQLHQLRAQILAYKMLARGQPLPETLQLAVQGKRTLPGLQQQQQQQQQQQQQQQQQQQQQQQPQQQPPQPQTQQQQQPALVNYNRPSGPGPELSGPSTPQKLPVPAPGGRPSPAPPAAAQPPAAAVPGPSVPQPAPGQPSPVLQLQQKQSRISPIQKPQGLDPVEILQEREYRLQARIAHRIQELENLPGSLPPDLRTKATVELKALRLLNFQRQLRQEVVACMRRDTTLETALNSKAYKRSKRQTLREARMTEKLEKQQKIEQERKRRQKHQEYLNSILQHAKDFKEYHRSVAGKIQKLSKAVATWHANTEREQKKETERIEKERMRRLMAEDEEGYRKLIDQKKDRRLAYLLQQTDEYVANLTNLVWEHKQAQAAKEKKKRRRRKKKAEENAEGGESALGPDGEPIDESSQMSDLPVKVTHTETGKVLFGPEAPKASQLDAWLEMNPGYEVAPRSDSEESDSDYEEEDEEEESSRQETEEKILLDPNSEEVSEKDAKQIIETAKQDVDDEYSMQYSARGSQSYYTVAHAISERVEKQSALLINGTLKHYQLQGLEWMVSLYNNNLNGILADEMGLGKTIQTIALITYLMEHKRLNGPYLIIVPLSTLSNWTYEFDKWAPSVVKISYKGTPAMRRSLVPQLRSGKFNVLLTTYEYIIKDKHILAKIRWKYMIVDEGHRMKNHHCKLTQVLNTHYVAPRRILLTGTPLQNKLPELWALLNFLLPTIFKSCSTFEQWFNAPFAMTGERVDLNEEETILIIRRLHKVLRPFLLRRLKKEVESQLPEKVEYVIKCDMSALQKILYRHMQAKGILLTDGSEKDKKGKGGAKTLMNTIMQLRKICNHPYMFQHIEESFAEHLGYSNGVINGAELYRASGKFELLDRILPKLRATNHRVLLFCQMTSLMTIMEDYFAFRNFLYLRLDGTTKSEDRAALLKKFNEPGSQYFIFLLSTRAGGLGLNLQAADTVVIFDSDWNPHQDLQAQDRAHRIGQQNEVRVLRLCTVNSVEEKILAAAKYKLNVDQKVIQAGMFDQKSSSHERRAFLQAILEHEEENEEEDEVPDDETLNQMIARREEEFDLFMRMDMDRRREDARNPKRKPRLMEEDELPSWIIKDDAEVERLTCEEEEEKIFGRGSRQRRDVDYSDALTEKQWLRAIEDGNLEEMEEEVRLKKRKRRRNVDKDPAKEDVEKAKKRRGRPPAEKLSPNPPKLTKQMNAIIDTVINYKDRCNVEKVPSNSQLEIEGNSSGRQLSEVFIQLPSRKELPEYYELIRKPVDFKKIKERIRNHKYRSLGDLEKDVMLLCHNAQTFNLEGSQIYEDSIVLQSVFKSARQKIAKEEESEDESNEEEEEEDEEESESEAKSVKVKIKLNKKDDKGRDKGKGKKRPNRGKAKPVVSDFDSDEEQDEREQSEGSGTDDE

Structure (SMILES) | Emax | DC50 | HiBit A549 SMARCA2 Emax (%) (Emax = amount of residual protein remaining in the cell following compound treatment)
Cc1ncsc1-c1ccc([C@H](C)NC(=O)[C@@H]2C[C@@H](O)CN2C(=O)[C@@H](NC(=O)CCCCCCCCC(=O)N2CCN(Cc3cccc(OC4CN(c5cc(-c6ccccc6O)nnc5N)C4)c3)CC2)C(C)(C)C)cc1 [Example 86, (2S,4R)-1-[(2S)-2-[[10-[4-[[3-[1-[3-amino-6-(2-hydroxyphenyl)pyridazin-4-yl]azetidin-3-yl]oxyphenyl]methyl]piperazin-1-yl]-10-oxo-decanoyl]amino]-3,3-dimethyl-butanoyl]-4-hydroxy-N-[(1S)-1-[4-(4-methylthiazol-5-yl)phenyl]ethyl]pyrrolidine-2-carboxamide] | 25% | 223 nM | –
Cc1ncsc1-c1ccc([C@H](C)NC(=O)[C@@H]2C[C@@H](O)CN2C(=O)[C@@H](NC(=O)CCCCCC(=O)N2CCN(c3ccc(N4CCCC(Oc5cc(-c6ccccc6O)nnc5N)C4)cc3)CC2)C(C)(C)C)cc1 (mixture of isomers) [Example 32, rac-(2S,4R)-4-hydroxy-1-[rac-(2S)-2-[[7-[4-[4-[3-[3-amino-6-(2-hydroxyphenyl)pyridazin-4-yl]oxy-1-piperidyl]phenyl]piperazin-1-yl]-7-oxo-heptanoyl]amino]-3,3-dimethyl-butanoyl]-N-[rac-(1S)-1-[4-(4-methylthiazol-5-yl)phenyl]ethyl]pyrrolidine-2-carboxamide] | 20% | 119 nM | –
Cc1ncsc1-c1ccc(CNC(=O)[C@@H]2C[C@@H](O)CN2C(=O)[C@@H](NC(=O)CCCCCCCCCC(=O)N2CCN(Cc3cccc(N4C5CCC4CN(c4cc(-c6ccccc6N)nnc4N)C5)c3)CC2)C(C)(C)C)cc1 [Example 102, (2S,4R)-1-[(2S)-2-[[11-[4-[[3-[3-[3-amino-6-(2-aminophenyl)pyridazin-4-yl]-3,8-diazabicyclo[3.2.1]octan-8-yl]phenyl]methyl]piperazin-1-yl]-11-oxo-undecanoyl]amino]-3,3-dimethyl-butanoyl]-4-hydroxy-N-[[4-(4-methylthiazol-5-yl)phenyl]methyl]pyrrolidine-2-carboxamide] | 59% | 992 nM | –
Cc1ncsc1-c1ccc([C@H](C)NC(=O)[C@@H]2C[C@@H](O)CN2C(=O)[C@@H](NC(=O)CCCCCC(=O)N2CCN(Cc3cccc(CCOc4cc(-c5ccccc5O)nnc4N)c3)CC2)C(C)(C)C)cc1 [Example 105, (2S,4R)-1-[(2S)-2-[[7-[4-[[3-[2-[3-amino-6-(2-hydroxyphenyl)pyridazin-4-yl]oxyethyl]phenyl]methyl]piperazin-1-yl]-7-oxo-heptanoyl]amino]-3,3-dimethyl-butanoyl]-4-hydroxy-N-[(1S)-1-[4-(4-methylthiazol-5-yl)phenyl]ethyl]pyrrolidine-2-carboxamide] | 40% | 923 nM | –
Cc1ncsc1-c1ccc(CNC(=O)[C@@H]2C[C@@H](O)CN2C(=O)[C@@H](NC(=O)CCCCCCCCC(=O)N2CC(Oc3cc(-c4ccccc4O)nnc3N)CC(c3ccccc3)C2)C(C)(C)C)cc1 (mixture of isomers) [Example 65, rac-(2S,4R)-4-hydroxy-N-[[4-(4-methylthiazol-5-yl)phenyl]methyl]-1-[rac-(2S)-2-[[10-[3-[3-amino-6-(2-hydroxyphenyl)pyridazin-4-yl]oxy-5-phenyl-1-piperidyl]-10-oxo-decanoyl]amino]-3,3-dimethyl-butanoyl]pyrrolidine-2-carboxamide] | 24% | 1030 nM | –
Cc1ncsc1-c1ccc(CNC(=O)[C@@H]2C[C@@H](O)CN2C(=O)[C@@H](NC(=O)CCCCCCCCCC(=O)N2CCN(Cc3cccc(N4C5CCC4CN(c4cc(-c6ccccc6O)nnc4N)C5)c3)CC2)C(C)(C)C)cc1 [Example 7, (2S,4R)-1-[(2S)-2-[[11-[4-[[3-[3-[3-amino-6-(2-hydroxyphenyl)pyridazin-4-yl]-3,8-diazabicyclo[3.2.1]octan-8-yl]phenyl]methyl]piperazin-1-yl]-11-oxo-undecanoyl]amino]-3,3-dimethyl-butanoyl]-4-hydroxy-N-[[4-(4-methylthiazol-5-yl)phenyl]methyl]pyrrolidine-2-carboxamide] | 39% | 357 nM | –
Cc1ncsc1-c1ccc([C@H](C)NC(=O)[C@@H]2C[C@@H](O)CN2C(=O)[C@@H](NC(=O)CCCCCCCCC(=O)N2CCN(c3cccc(OC4CN(c5cc(-c6ccccc6O)nnc5N)C4)c3)CC2)C(C)(C)C)cc1 [Example 96, (2S,4R)-1-[(2S)-2-[[10-[4-[3-[1-[3-amino-6-(2-hydroxyphenyl)pyridazin-4-yl]azetidin-3-yl]oxyphenyl]piperazin-1-yl]-10-oxo-decanoyl]amino]-3,3-dimethyl-butanoyl]-4-hydroxy-N-[(1S)-1-[4-(4-methylthiazol-5-yl)phenyl]ethyl]pyrrolidine-2-carboxamide] | 28% | 200 nM | –
Cc1ncsc1-c1ccc(CNC(=O)[C@@H]2C[C@@H](O)CN2C(=O)[C@H](NC(=O)CCCCCCC(=O)N2CCN(CCOc3cccc(N4C5CCC4CN(c4cc(-c6ccccc6O)nnc4N)C5)c3)CC2)C(C)(C)C)cc1 [Example 8, (2S,4R)-1-[(2R)-2-[[8-[4-[2-[3-[3-[3-amino-6-(2-hydroxyphenyl)pyridazin-4-yl]-3,8-diazabicyclo[3.2.1]octan-8-yl]phenoxy]ethyl]piperazin-1-yl]-8-oxo-octanoyl]amino]-3,3-dimethyl-butanoyl]-4-hydroxy-N-[[4-(4-methylthiazol-5-yl)phenyl]methyl]pyrrolidine-2-carboxamide] | 48% | 610 nM | –
Cc1ncsc1-c1ccc([C@H](C)NC(=O)[C@@H]2C[C@@H](O)CN2C(=O)[C@@H](NC(=O)CCC(=O)N2CCN(CCOc3cccc(N4CCCC(Oc5cc(-c6ccccc6O)nnc5N)C4)c3)CC2)C(C)(C)C)cc1 (mixture of isomers) [Example 69, rac-(2S,4R)-4-hydroxy-1-[rac-(2S)-2-[[4-[4-[2-[3-[3-[3-amino-6-(2-hydroxyphenyl)pyridazin-4-yl]oxy-1-piperidyl]phenoxy]ethyl]piperazin-1-yl]-4-oxo-butanoyl]amino]-3,3-dimethyl-butanoyl]-N-[rac-(1S)-1-[4-(4-methylthiazol-5-yl)phenyl]ethyl]pyrrolidine-2-carboxamide] | 60% | 2110 nM | –
Cc1ncsc1-c1ccc(CNC(=O)[C@@H]2C[C@@H](O)CN2C(=O)[C@@H](NC(=O)CCCCCC(=O)N2CC(Oc3cc(-c4ccccc4O)nnc3N)CC(c3ccccc3)C2)C(C)(C)C)cc1 (mixture of isomers) [Example 66, Trans rac-(2S,4R)-4-hydroxy-N-[[4-(4-methylthiazol-5-yl)phenyl]methyl]-1-[rac-(2S)-2-[[7-[3-[3-amino-6-(2-hydroxyphenyl)pyridazin-4-yl]oxy-5-phenyl-1-piperidyl]-7-oxo-heptanoyl]amino]-3,3-dimethyl-butanoyl]pyrrolidine-2-carboxamide] | 49% | 2020 nM | –
Cc1ncsc1-c1ccc(CNC(=O)[C@@H]2C[C@@H](O)CN2C(=O)[C@@H](NC(=O)CCCCCCCCC(=O)N2CCN(c3cc(-c4ccccc4O)nnc3N)CC2C)C(C)(C)C)cc1 (stereo partly drawn) [Example 4, (2S,4R)-1-[(2S)-2-[[10-[4-[3-amino-6-(2-hydroxyphenyl)pyridazin-4-yl]-2-methyl-piperazin-1-yl]-10-oxo-decanoyl]amino]-3,3-dimethyl-butanoyl]-4-hydroxy-N-[[4-(4-methylthiazol-5-yl)phenyl]methyl]pyrrolidine-2-carboxamide] | 36% | 2930 nM | –
Cc1ncsc1-c1ccc([C@H](C)NC(=O)[C@@H]2C[C@@H](O)CN2C(=O)[C@@H](NC(=O)CCCCCCCCCC(=O)N2CCN(CCOc3cccc(N4C5CCC4CN(c4cc(-c6ccccc6O)nnc4N)C5)c3)CC2)C(C)(C)C)cc1 [Example 37, (2S,4R)-1-[(2S)-2-[[11-[4-[2-[3-[3-[3-amino-6-(2-hydroxyphenyl)pyridazin-4-yl]-3,8-diazabicyclo[3.2.1]octan-8-yl]phenoxy]ethyl]piperazin-1-yl]-11-oxo-undecanoyl]amino]-3,3-dimethyl-butanoyl]-4-hydroxy-N-[(1S)-1-[4-(4-methylthiazol-5-yl)phenyl]ethyl]pyrrolidine-2-carboxamide] | 29% | 73 nM | –
Cc1ncsc1-c1ccc([C@H](C)NC(=O)[C@@H]2C[C@@H](O)CN2C(=O)[C@@H](NC(=O)CCCCCCCCC(=O)N2CCN(CCOc3cccc(CCOc4cc(-c5ccccc5O)nnc4N)c3)CC2)C(C)(C)C)cc1 [Example 58, (2S,4R)-1-[(2S)-2-[[10-[4-[2-[3-[2-[3-amino-6-(2-hydroxyphenyl)pyridazin-4-yl]oxyethyl]phenoxy]ethyl]piperazin-1-yl]-10-oxo-decanoyl]amino]-3,3-dimethyl-butanoyl]-4-hydroxy-N-[(1S)-1-[4-(4-methylthiazol-5-yl)phenyl]ethyl]pyrrolidine-2-carboxamide] | 22% | 197 nM | –
Cc1ncsc1-c1ccc(CNC(=O)[C@@H]2C[C@@H](O)CN2C(=O)[C@@H](NC(=O)CCCCCCCCC(=O)N2CCN(CCOc3ccccc3N3C4CCC3CN(c3cc(-c5ccccc5O)nnc3N)C4)CC2)C(C)(C)C)cc1 [Example 55, (2S,4R)-1-[(2S)-2-[[10-[4-[2-[2-[3-[3-amino-6-(2-hydroxyphenyl)pyridazin-4-yl]-3,8-diazabicyclo[3.2.1]octan-8-yl]phenoxy]ethyl]piperazin-1-yl]-10-oxo-decanoyl]amino]-3,3-dimethyl-butanoyl]-4-hydroxy-N-[[4-(4-methylthiazol-5-yl)phenyl]methyl]pyrrolidine-2-carboxamide] | 27% | 2580 nM | –
Cc1ncsc1-c1ccc(CNC(=O)[C@@H]2C[C@@H](O)CN2C(=O)[C@@H](NC(=O)CCCCCCCCC(=O)N2CC(Oc3cc(-c4ccccc4O)nnc3N)CC(c3ccccc3)C2)C(C)(C)C)cc1 (mixture of isomers) [Example 67, Trans rac-(2S,4R)-4-hydroxy-N-[[4-(4-methylthiazol-5-yl)phenyl]methyl]-1-[rac-(2S)-2-[[10-[3-[3-amino-6-(2-hydroxyphenyl)pyridazin-4-yl]oxy-5-phenyl-1-piperidyl]-10-oxo-decanoyl]amino]-3,3-dimethyl-butanoyl]pyrrolidine-2-carboxamide] | – | 839 nM | 29%
